Test results as given in patent US20090048173A1, “Use Of Dipyridamole For Treatment Of Resistance To Platelet Inhibitors” (priority 2004, published 2009).
Entries after “also recorded” stand apart in the source; their conditions may differ.

Columns and labels:
platelet aggregability = conditions: aspirin resistant or aspirin semiresponders; literature 2001-2004; cited from earlier work
[1] = ESPS-2; J Neurol Sci. 1996; Neurology 1998; cited from earlier work
[2] = test system: Thrombin receptor (PAR-1); assay: Flow cytometry: intact (SPAN12) and cleaved (WEDE15) PAR-1 thrombin receptors on platelets; format: cell-based, human; conditions: for Thrombin receptor (PAR-1) WEDE 15 (epitope of cleaved receptors) / Thrombin receptor (PAR-1) SPAN 12 (epitope of intact receptor): non-responder blood, 45 min; for Thrombin receptor (PAR-1) WEDE 15 (epitope of cleaved receptors): baseline 20.2 ± 3.4; for Thrombin receptor (PAR-1) SPAN 12 (epitope of intact receptor): baseline 31.6 ± 6.4
Procedure: (§1) Aspirin/clopidogrel resistance is defined by lack of platelet inhibition after one month of mono- or combination therapy. Lack of platelet inhibition is defined when 4 out of the following 5 parameters are met: ADP-induced platelet aggregation remains >60%; collagen-induced aggregation >70%; whole blood aggregation >18 ohms; expression of GP IIb/IIIa >220 log MFI; and P-selectin cell positivity >8%.
(§2) Experiments are done (blood is incubated) with dipyridamole 2 μM/L and 4 μM/L.
(§3) Twenty ml of blood were collected from each participant, divided into 3 parts, and 2 parts were incubated for 45 min with 2 μM/L and 4 μM/L of Dipyridamole. This concentration corresponds to the physiological Dipyridamole concentration in plasma achieved 0.8-12 hours after oral administration of Aggrenox (25 mg of aspirin+200 mg of Dipyridamole). The third portion was incubated with the vehicle and served as internal control.
(§4) Patients on other antithrombotic agents including COX inhibitors, and NSAID were excluded. Blood samples were pretreated with dipyridamole (2 mkg/ml, 4 mkg/ml), simulating the therapeutic range, and then incubated for 45 minutes at 37° C. Platelets were assessed by conventional (1 μM collagen, 0.75 μM arachidonic acid, and 5 μM ADP), and whole blood (1 mg/ml collagen) aggregometry; the expression of GP IIb/IIIa, P-selectin, annexin V binding, intact (SPAN12), and cleaved (WEDE15) PAR-1 thrombin receptors by flow cytometry. Markers of TR (D-Dimer, Thrombin-Antithrombin-III Complexes, and Prothrombin Fragment F1+2) were measured in the autologous plasma samples by ELISA.

platelets = assay: Platelet aggregation, conventional aggregometry, in blood of aspirin/clopidogrel resistant stroke/TIA patients pretreated in vitro with dipyridamole; format: cell-based, human; conditions: for Platelet aggregation 5 μM ADP: baseline 65.5 ± 6.3; for Platelet aggregation Collagen 1 μM / Platelet aggregation Arachidonic Acid 0.75 μM: non-responder blood, 45 min; for Platelet aggregation Collagen 1 μM: baseline 65.9 ± 8.9; for Platelet aggregation Arachidonic Acid 0.75 μM: baseline 72.5 ± 9.5
Procedure: as §1, §2, §3, §4

P-selectin = assay: Flow cytometry: platelet expression of CD62p (P-selectin); format: cell-based, human; conditions: non-responder blood, 45 min, baseline 10.0 ± 1.8
Procedure: as §1, §2
as §3, with “The third portion was incubated with the vehicle and served as internal control.” left out
as §4, with “Blood samples were pretreated with dipyridamole (2 mkg/ml, 4 mkg/ml), simulating the therapeutic range, and then incubated for 45 minutes at 37° C.” left out

[3] = test system: Annexin V binding sites on platelets; assay: Flow cytometry: Annexin V binding on platelets; format: cell-based, human; conditions: for Annexin V binding (PS % positive cells): non-responder blood, 45 min, baseline 9.5 ± 2.7
Procedure: as §1, §2, §3, §4

thrombin generation = assay: Thrombin generation markers in autologous plasma by ELISA; format: cell-based, human; conditions: for Prothrombin fragment F1 + 2 / Thrombin-antithrombin III Complex / Thrombin generation markers D-dimer: non-responder blood, 45 min; for Prothrombin fragment F1 + 2: baseline 1.9 ± 1.0; for Thrombin-antithrombin III Complex: baseline 3.2 ± 1.1; for Thrombin generation markers D-dimer: baseline 325.0 ± 84.6
Procedure: as §1, §2, §3, §4

GP IIb/IIIa = assay: Flow cytometry: platelet expression of CD41a (GP IIb/IIIa); format: cell-based, human; conditions: for Flow-cytometry CD41a (GP IIb), MFI: non-responder blood, 45 min, baseline 429.0 ± 52.1
Procedure: as §1, §2, §3, §4

[4] = addition of DIP in vitro in AR patients
[5] = Dipyridamole 4 μg/ml, p = 0.022
[6] = DIP in vitro, 2 and 4 mkg/ml, blood of AR patients, listed as DIP

For CC(=O)Oc1ccccc1C(=O)O [ASA, acetylsalicylic acid], the “patients treated with ASA who did not show appropriate reduction in platelet aggregability” value (platelet aggregability) is listed as “up to 30%”.
In the case of OCCN(CCO)c1nc(N2CCCCC2)c2nc(N(CCO)CCO)nc(N3CCCCC3)c2n1 [Dipyridamole, 2,6-bis(diethanolamino)-4,8-dipiperidino-pyrimido[5,4-d]pyrimidine], the “reduction of stroke risk” value [1] is listed as “as effective as low-dose aspirin”, the “PAR-1 receptors (in words)” value [2, 4] is listed as “sustained blockade” and the “expression of intact PAR-1 receptor (in words)” value ([2]; after incubation with 2 mkg/ml and 4 mkg/ml of dipyridamole (p=0.02 and p=0.024)) is listed as “diminished expression”. For the same compound, the “Thrombin receptor (PAR-1) WEDE 15 (epitope of cleaved receptors)” value ([2]; Dipyridamole 2 μg/ml, p = 0.0507) was 18.4 ± 3.1, the “Thrombin receptor (PAR-1) SPAN 12 (epitope of intact receptor)” value ([2]; Dipyridamole 2 μg/ml, p = 0.02) was 27.8 ± 5.4 and the “Thrombin receptor (PAR-1) WEDE 15 (epitope of cleaved receptors)” value [2, 5] was 18.1 ± 3.0. The “Thrombin receptor (PAR-1) SPAN 12 (epitope of intact receptor)” value ([2]; Dipyridamole 4 μg/ml, p = 0.024) was 29.1 ± 5.5, the “activity of the cleaved PAR-1 (in words)” value ([2]; only after incubation with 4 mkg/ml, statistically significant (p=0.022)) was “decreased activity” and the “Platelet aggregation / aggregometry (in words)” value (platelets; [6]) was “not affected; also recorded: not changed”. The “Platelet aggregation 5 μM ADP” value (platelets; non-responder blood (n = 20) incubated 45 min at 37° C. with Dipyridamole 2 μg/ml, p = 0.13) was 63.6 ± 6.8%, the “Platelet aggregation 5 μM ADP” value (platelets; non-responder blood (n = 20) incubated 45 min at 37° C. with Dipyridamole 4 μg/ml, p = 0.66) was 63.8 ± 6.8% and the “Platelet aggregation Collagen 1 μM” value (platelets; Dipyridamole 2 μg/ml, p = 0.13) was 64.2 ± 7.4%. For the same compound, the “Platelet aggregation Arachidonic Acid 0.75 μM” value (platelets; Dipyridamole 2 μg/ml, p = 0.41) was 71.4 ± 7.3, the “Platelet aggregation Collagen 1 μM” value (platelets; Dipyridamole 4 μg/ml, p = 0.38) was 64.2 ± 6.9% and the “Platelet aggregation Arachidonic Acid 0.75 μM” value (platelets; Dipyridamole 4 μg/ml, p = 0.12) was 70.6 ± 6.2. The “Flow-cytometry CD62p (P-selectin), % +” value (P-selectin; Dipyridamole 2 μg/ml, p = 0.308) was 9.4 ± 2.8 % +, the “Flow-cytometry CD62p (P-selectin), % +” value (P-selectin; Dipyridamole 4 μg/ml, p = 0.21) was 9.4 ± 2.4 % + and the “annexin V binding (in words)” value ([3]; after incubation with 2 mkg/ml and 4 mkg/ml of dipyridamole (p=0.031 and p=0.02), listed as DIP) was “diminished; also recorded: sustained blockade”. For the same compound, the “Annexin V binding sites compared to pre-incubation” value ([3]; incubation of cells with DIP, patients with anti-platelet therapy resistance, e.g. ASA or clopidogrel resistance) was “significant reduction”, the “Annexin V binding (PS % positive cells)” value ([3]; Dipyridamole 2 μg/ml, p = 0.031) was 7.9 ± 2.3 % positive cells and the “Annexin V binding (PS % positive cells)” value [3, 5] was 7.7 ± 1.9 % positive cells. For the same compound, the “TG markers / TR markers (in words)” value (thrombin generation; [6]) was “not affected; also recorded: not changed”, the “Prothrombin fragment F1 + 2” value (thrombin generation; Dipyridamole 2 μg/ml, p = 0.17) was 1.8 ± 1.0 nM/L and the “Thrombin-antithrombin III Complex” value (thrombin generation; Dipyridamole 2 μg/ml, p = 0.49) was 3.2 ± 1.2 µg/L. The “Thrombin generation markers D-dimer” value (thrombin generation; Dipyridamole 2 μg/ml, p = 0.55) was 316.1 ± 90.1 µg/L, the “Prothrombin fragment F1 + 2” value (thrombin generation; Dipyridamole 4 μg/ml, p = 0.41) was 1.8 ± 0.9 nM/L and the “Thrombin-antithrombin III Complex” value (thrombin generation; Dipyridamole 4 μg/ml, p = 0.24) was 3.1 ± 1.2 µg/L. The “Thrombin generation markers D-dimer” value (thrombin generation; Dipyridamole 4 μg/ml, p = 0.48) was 310.8 ± 83.8 µg/L, the “GP IIb/IIIa (in words)” value (GP IIb/IIIa; [4]) was “sustained blockade” and the “Flow-cytometry CD41a (GP IIb), MFI” value (GP IIb/IIIa; Dipyridamole 2 μg/ml, p = 0.12) was 417.6 ± 49.5 MFI. For the same compound, the “Flow-cytometry CD41a (GP IIb), MFI” value (GP IIb/IIIa; Dipyridamole 4 μg/ml, p = 0.22) was 419.4 ± 49.1 MFI.
